How the values were obtained:
[1] = target: T1, RBBp4 (Homo sapiens, UniProt Q09028); test: Isothermal titration calorimetry (ITC) of SALL4 peptide against RBBp4; conditions: 25° C., 1:1 binding model
T1 construct: purchased SinoBiological
Description: (§1) FIGS. 1A-1B. Binding affinity of WT SALL4 (1-12 aa) to RBBp4.
ITC was carried out with an Auto-iTC200 instrument from Microcal Inc. at 25° C. […] of RBBp4 in 50 mM Tris and 100 mM NaCl at pH 7.4 was loaded into the ITC cell. Sal14 peptide at […] was auto-loaded into the syringe. The titration was carried out with 18 injections of 2.4 μl, performed over a period of 30 min with stirring at 1000 rpm. The ITC data was analysed using Origin software from Microcal.

[2] = target: T1, RBBp4; test: Surface plasmon resonance (SPR), RBBp4 immobilised on CM5 chip; format: binding
Description: as §1
SPR studies were performed using a Biacore T200 biosensor (GE Healthsciences). ˜12,000 resonance units (RU) of RBBp4 were immobilised by amine coupling to the carboxymethylated dextran matrix of a Series S CM5 chip (Biacore, GE Healthcare). Multi cycle kinetics analysis was performed at 25° C. through seven injections of SALL4 peptide (0.5 μM-8 μM). The association time and flow rate were set at 60 s and 30 μl/min respectively. The sensograms obtained were of good quality and kinetic rate constants were determined by curve fitting.

[3] = target: T1, RBBp4; test: Fluorescence polarization (FP) competition with FITC-labelled SALL4 WT peptide; format: binding; conditions: displacement of FITC-SALL4 WT peptide from RBBp4
Description: (§2) FIGS. 3A-3E. Key residues involved in SALL4 (1-12)-RBBp4 binding. […] The difference in the binding free energy (ΔΔGbind) of the alanine mutants (ΔGmutant, Ala7 was mutated to glycine) and wild type (ΔGwild type) was calculated (ΔΔGbind=ΔGmutant−ΔGwild type). ΔΔGbind was tabulated (left) and plotted in a bar chart (right). […] Mutated residues are highlighted in red. The IC50 of each peptide, including WT, was determined by Fluorescence Polarization (FP). Different concentrations of each peptide were titrated into a mixture of 0.04 μM RBBp4 and 0.01 μM of C-labelled FITC-SALL4 WT peptide. Polarization was measured in mP. […] Pep-1 carrier was added to the peptide to facilitate cellular penetration of the peptides.
Peptides were titrated into a master mix of 0.045 μM RBBp4 and […] C-terminal FITC-labelled WT peptide (synthesized by Thermo Scientific). Reactions were incubated at room temperature before the plate was read with an Envision instrument (Perkin Elmer). IC50 values of peptides were determined using Prism (GraphPad).

[4] = test system: SNU398 cells; test: Cell viability assay in SNU398 cells; format: cell-based; conditions: SNU398, Pep-1 carrier added
Description: as §2
FIGS. 5A-5B. Development of a potent therapeutic peptide FFW.
SNU398 was grown in RPMI supplemented with 10% fetal bovine serum (FBS) at 37° C. in a humidified atmosphere of 5% CO2. 3000 cells were seeded in each well of a 96 well plate with 100 μL of medium. Before peptide treatment, cells were washed twice with PBS and treated with different concentrations of peptide in OPTIMEM (LifeTech). Media was added after 4 hrs of incubation at 37° C., and cells incubated for another 68 hrs. Tetrazolium (CellTiter96 AQueous One Solution Cell Proliferation Assay, Promega) was added after 72 hrs incubation with the peptides, and the plate was read at a plate reader at 490 nm after 1 hr of incubation in the dark at 37° C.

[5] = test system: PTEN; test: PTEN transcript level by quantitative real-time PCR in SNU398 cells; format: cell-based; conditions: Q-PCR
[6] = test system: SNU398; test: RNA-seq transcriptome analysis of treated SNU398; format: cell-based
Description: SNU398 were treated PEN, PEN-MUT, PEN-WT & PEN-FFW for 8 hrs and paired-end RNA-seq was performed for the treated samples. RNA-seq reads of each sample were mapped to hg19 using the STAR aligner. Normalization between the samples was based on the proportionality of the numbers of the mapped reads. The expression fold change of a transcript was obtained using linear regression of the reads between the two samples cross all exons. Differential expression between two samples was selected by using the fold change cut off of 2. Hierarchical clustering was performed based on average linkage to generate the clustering tree as well as heat maps. For identification of enriched gene sets or pathways, Gene Set Enrichment Analysis (GSEA) was performed based on the normalized data and using the GSEA tool (broad.mit.edu/gsea/) with msigdb.v5.0.

T1 sequence (Q09028 whole entry): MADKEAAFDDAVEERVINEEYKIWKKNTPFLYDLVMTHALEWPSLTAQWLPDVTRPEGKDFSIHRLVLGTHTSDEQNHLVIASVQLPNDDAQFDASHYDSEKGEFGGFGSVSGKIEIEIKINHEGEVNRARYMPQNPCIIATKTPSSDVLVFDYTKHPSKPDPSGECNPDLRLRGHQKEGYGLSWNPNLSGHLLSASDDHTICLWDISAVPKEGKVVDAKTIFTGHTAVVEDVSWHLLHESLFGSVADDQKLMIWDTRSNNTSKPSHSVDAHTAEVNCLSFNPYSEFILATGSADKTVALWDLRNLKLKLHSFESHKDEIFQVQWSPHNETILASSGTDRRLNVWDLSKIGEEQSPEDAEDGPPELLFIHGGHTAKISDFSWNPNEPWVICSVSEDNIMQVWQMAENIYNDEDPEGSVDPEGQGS

Ac-MSRRKQAKPQHI-NH2 [Peptide 1, reference compound]
Kd [1]: 1040 ± 60 nM
koff [2]: 0.026 ± 0.00045 s⁻¹
kon [2]: 16800 ± 460 M⁻¹ s⁻¹
IC50 [3]: 1040 ± 200 nM
effect on cell number [4]: exerts an inhibitory effect on cell number
increase in PTEN expression compared to untreated cells [5]: 3 fold
log2 fd versus Contr (PEN + Mut), ADORA2A-AS1 ([6]; gene ADORA2A-AS1, SNU398, 8 hrs): 1.05
log2 fd versus Contr (PEN + Mut), AVPR2 ([6]; gene AVPR2, SNU398, 8 hrs): 0.11
log2 fd versus Contr (PEN + Mut), CSAD ([6]; gene CSAD, SNU398, 8 hrs): 0.25
log2 fd versus Contr (PEN + Mut), DNASE1L2 ([6]; gene DNASE1L2, SNU398, 8 hrs): 0.42
log2 fd versus Contr (PEN + Mut), LOC619207 ([6]; gene LOC619207, SNU398, 8 hrs): 0.36
log2 fd versus Contr (PEN + Mut), NEIL1 ([6]; gene NEIL1, SNU398, 8 hrs): 0.30
log2 fd versus Contr (PEN + Mut), PRKXP1 ([6]; gene PRKXP1, SNU398, 8 hrs): 0.62
log2 fd versus Contr (PEN + Mut), SSPO ([6]; gene SSPO, SNU398, 8 hrs): 0.99
